Data on two compounds can be found in patent EP2961753B1, “STANNOUS FLUORESCENT PROBE” (priority 2014, dated 2015).

Data set [1] in a line: Metal ion sensing: fluorescence titration with Sn^2+ and selectivity against various metal ions. In kind it is physicochemical. The note with it: for fluorescence at 580 nm / fluorescence of the solution / selectivity on sensing Sn^2+: metal ions that turn fluorescence on: 20 µM in ethanol-water (1: 1, v/v, PH 7.04); for fluorescence at 580 nm: addition of Sn^2+ (0-20 eq); for fluorescence at 580 nm / selectivity on sensing Sn^2+: metal ions that turn fluorescence on / fluorescence enhancement by other transition and heavy metal ions: excitation 560 nm; for fluorescence of the solution: no metal ion added; for selectivity on sensing Sn^2+: metal ions that turn fluorescence on: various metal ions; for fluorescence enhancement by other transition and heavy metal ions: 20 µM, K^+, Ag^+, Ca^2+, Mg^2+, Zn^2+, Pb^2+, Ni^2+, Mn^2+, Co^2+, Cd^2+, Hg^2+.
Description: Solutions of the metal ions (10.0 mM) are prepared in deionized water. A stock solutions of Compounds R1 and R2 (0.2 mM) are each prepared in ethanol and then diluted to 20 µM with ethanol-water (1: 1, v/v, pH 7.04) for spectral measurement. For titration experiments, a 2.0 mL solution of Compounds R1 and R2 (20 µM) are filled in a respective quartz optical cell of 1 cm optical path length. Sn^2+ stock solution is added into the quartz optical cell gradually by micro-pipette. Spectral data is recorded at 5 min after addition. In selectivity experiments, the test samples are prepared by placing appropriate amounts of metal ion stock into 2.0 mL solution of R1, R2 (20 µM). For fluorescence measurements, excitation is provided at 560 nm, while emission is collected from 565 to 700 nm.

The nature of data set [2]: pH titration of probe fluorescence. The format is physicochemical. The note with it: 10 µM in PBS, fluorescence at 580 nm, excitation 560 nm, no Sn^2+.
Description: pH titration of Compounds R1 and R2 is described. Stock solutions of Compounds R1 and R2 are respectively added to sodium phosphate buffers of various pH to a final concentration of 10 µM. The fluorescence emission spectra are recorded as a function of pH using λex at 560 nm. The titration curves are plotted by fluorescence emission intensities at 580 nm versus pH.
The impact of pH values on fluorescence is described. The pirolactam ring of the rhodamine derivatives will open in a certain pH range and indicates the fluorescence of rhodamine. It is therefore necessary to check the fluorescence properties of Compounds R1 and R2 in solutions with different pH values. […] Considering the application of Sn^2+ probe R1 and R2 intracellular or extracellular may be disturbed by the pH, the acid-base titration experiments are carried out by adjusting the pH with an aqueous solution of NaOH and HCl in Phosphate-Buffered Saline ("PBS") (Fig.2 a and b). […] Figures 2a and 2b show the dependence of fluorescence at 580 nm of comparative Compound R1 and inventive Compound R2 (10 µM) at different pH in PBS solution. Excitation was at 560 nm.

On to `CCN(CC)c1ccc2c(c1)Oc1cc(N(CC)CC)ccc1C21c2ccccc2C(=O)N1NC(=O)OC(C)(C)C` [Compound R2], for which, in data set [1], the “fluorescence at 580 nm” value was “turned on and grown drastically”; the “fluorescence of the solution” value is “non-fluorescent”; the “selectivity on sensing Sn^2+: metal ions that turn fluorescence on” value is “tuning on just in the presence of Sn^2+ and Cr^3+”; the “fluorescence enhancement by other transition and heavy metal ions” value was “minimal enhancement”. In data set [2], the “pH range for inducing fluorescence turning on” value is 2-4.5.
In the case of “Spiro[1H-isoindole-1,9'-[9H]xanthen]-3(2H)-one, 2-[2-[bis(2-hydroxyethyl)amino]amino]ethyl]-3',6'-bis(diethylamino) [Compound R1]”, in data set [1], the “fluorescence at 580 nm” value is “turned on and grown drastically”; the “fluorescence of the solution” value is given as “non-fluorescent”; the “selectivity on sensing Sn^2+: metal ions that turn fluorescence on” value is “tuning on just in the presence of Sn^2+ and Cr^3+”; the “fluorescence enhancement by other transition and heavy metal ions” value was “minimal enhancement”. Besides, in data set [2], the “pH range for inducing fluorescence turning on” value is on record as 2.5-6.
